Results published in patent US20080269267A1, “KINASE INHIBITORS USEFUL FOR THE TREATMENT OF MYLEOPROLIFIC DISEASES AND OTHER PROLIFERATIVE DISEASES” (Deciphera Pharmaceuticals, LLC, priority 2007, published 2008).
Numbering of substitutions follows the chain as printed. Counter-ions that a name gives are not always drawn.

Legend:
Abl kinase (SEQ ID NO:1) = molecular target: T1, Abl kinase (SEQ ID NO:1) (Homo sapiens, UniProt P00519); assay: Abl kinase assay (pyruvate kinase/lactate dehydrogenase coupled, ADP production); conditions: 2 h preincubation at 30° C., ATP 500 μM; read-out: Abl Enzyme Assay, biochemical IC50
T1 construct: purchased deCode Genetics
T1 sequence (P00519 with tags, fused parts or gaps): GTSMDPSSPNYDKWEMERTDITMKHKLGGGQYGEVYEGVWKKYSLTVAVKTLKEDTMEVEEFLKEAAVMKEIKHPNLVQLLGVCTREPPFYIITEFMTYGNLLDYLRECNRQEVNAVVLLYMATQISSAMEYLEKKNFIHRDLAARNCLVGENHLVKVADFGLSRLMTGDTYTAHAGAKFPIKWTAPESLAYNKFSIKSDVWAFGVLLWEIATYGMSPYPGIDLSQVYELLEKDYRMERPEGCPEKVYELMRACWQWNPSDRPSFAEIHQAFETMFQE
Experimental: Abl Kinase (SEQ ID NO:1) Assay
Activity of Abl kinase (SEQ ID NO:1) was determined by following the production of ADP from the kinase reaction through coupling with the pyruvate kinase/lactate dehydrogenase system (e.g., Schindler, et al. Science (2000) 289, 1938-1942). In this assay, the oxidation of NADH (thus the decrease at A340nm) was continuously monitored spectrophometrically. The reaction mixture (100 μl) contained Abl kinase (1 nM. Abl from deCode Genetics), peptide substrate (EAIYAAPFAKKK. 0.2 mM), MgCl2 (10 mM), pyruvate kinase (4 units), lactate dehydrogenase (0.7 units), phosphoenol pyruvate (1 mM), and NADH (0.28 mM) in 90 mM Tris buffer containing 0.2% octyl-glucoside and 3.5% DMSO, pH 7.5. Test compounds were incubated with Abl (SEQ ID NO:1) and other reaction reagents at 30° C. for 2 h before ATP (500 μM) was added to start the reaction. The absorption at 340 nm was monitored continuously for 2 hours at 30° C. on Polarstar Optima plate reader (BMG). The reaction rate was calculated using the 1.0 to 2.0 h time frame. Percent inhibition was obtained by comparison of reaction rate with that of a control (i.e. with no test compound). IC50 values were calculated from a series of percent inhibition values determined at a range of inhibitor concentrations using software routines as implemented in the GraphPad Prism software package.

[1] = molecular target: T2, C-Met kinase (SEQ ID NO:10) (Homo sapiens, UniProt P08581); assay: C-Met kinase assay (pyruvate kinase/lactate dehydrogenase coupled); conditions: 0.5 h preincubation at 22° C., ATP 100 μM; read-out: c-Met Enzyme Assay, biochemical IC50
T2 construct: purchased Invitrogen PV3143
T2 sequence (P08581 with tags, fused parts or gaps): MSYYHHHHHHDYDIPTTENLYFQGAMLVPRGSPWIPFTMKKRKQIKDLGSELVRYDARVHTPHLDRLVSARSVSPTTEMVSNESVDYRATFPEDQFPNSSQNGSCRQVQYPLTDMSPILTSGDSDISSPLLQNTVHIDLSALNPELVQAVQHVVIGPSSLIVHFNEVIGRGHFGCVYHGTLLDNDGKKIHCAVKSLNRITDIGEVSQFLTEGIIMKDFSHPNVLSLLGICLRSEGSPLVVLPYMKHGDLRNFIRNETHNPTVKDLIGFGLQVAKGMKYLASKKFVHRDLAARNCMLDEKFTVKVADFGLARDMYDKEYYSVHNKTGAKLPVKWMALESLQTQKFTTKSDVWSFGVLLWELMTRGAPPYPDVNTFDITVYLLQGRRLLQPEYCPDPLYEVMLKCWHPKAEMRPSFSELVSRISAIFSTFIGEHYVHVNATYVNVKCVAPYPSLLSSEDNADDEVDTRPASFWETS
Experimental: C-Met Kinase (SEQ ID NO:10) Assay
Activity of C-Met kinase (SEQ ID NO:10) was determined by following the production of ADP from the kinase reaction through coupling with the pyruvate kinase/lactate dehydrogenase system (e.g., Schindler, et al. Science (2000) 289, 1938-1942). In this assay, the oxidation of NADH (thus the decrease at A340 nm) was continuously monitored spectrophometrically. The reaction mixture (100 μl) contained C-Met (c-Met residues; 956-1390, from Invitrogen, catalogue #PV3143, 6 nM), polyE4Y (1 mg/ml), MgCl2 (10 mM), pyruvate kinase (4 units), lactate dehydrogenase (0.7 units), phosphoenol pyruvate (1 mM), and NADH (0.28 mM) in 90 mM Tris buffer containing 0.25 mM DTT, 0.2% octyl-glucoside and 1% DMSO, pH 7.5. Test compounds were incubated with C-Met (SEQ ID NO:10) and other reaction reagents at 22° C. for 0.5 h before ATP (100 μM) was added to start the reaction. The absorption at 340 n=was monitored continuously for 2 hours at 30° C. on Polarstar Optima plate reader (BMG). The reaction rate was calculated using the 1.0 to 2.0 h time frame. Percent inhibition was obtained by comparison of reaction rate with that of a control (i.e. with no test compound). IC50 values were calculated from a series of percent inhibition values determined at a range of inhibitor concentrations using software routines as implemented in the GraphPad Prism software package.

[2] = molecular target: B-Raf(V600E) kinase (SEQ ID NO:11) (Homo sapiens, UniProt P15056, V600E); assay: B-Raf(V600E) kinase assay (pyruvate kinase/lactate dehydrogenase coupled, MEK1 substrate); conditions: 1 h preincubation at 30° C., ATP 0.2 mM; read-out: B-Raf V600E Enzyme Assay, biochemical IC50
Chain of B-Raf(V600E) kinase (SEQ ID NO:11) (P15056 with tags, fused parts or gaps V600E): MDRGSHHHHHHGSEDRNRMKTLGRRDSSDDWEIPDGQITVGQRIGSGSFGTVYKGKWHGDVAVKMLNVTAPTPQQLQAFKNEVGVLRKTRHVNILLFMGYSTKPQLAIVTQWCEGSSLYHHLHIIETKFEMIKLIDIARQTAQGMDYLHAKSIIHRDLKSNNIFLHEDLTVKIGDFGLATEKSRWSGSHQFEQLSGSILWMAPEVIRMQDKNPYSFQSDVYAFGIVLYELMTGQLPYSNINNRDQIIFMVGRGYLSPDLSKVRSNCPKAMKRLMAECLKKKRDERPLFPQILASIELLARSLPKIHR
Experimental: B-Raf(V600E) Kinase Assay
The activity of B-Raf(V600E) kinase (SEQ ID NO:11) was determined by following the formation of ADP from the reaction through coupling with the pyruvate kinase/lactate dehydrogenase system (e.g., Schindler, et al. Science (2000) 289, 1938-1942). In this assay, the oxidation of NADH (thus the decrease at A340nm) was continuously monitored spectrophotometrically. The reaction mixture (100 μl) contained B-Raf(V600E) kinase (0.34 nM nominal concentration, SEQ ID NO:11), unphosphorylated, full-length MEK1 (42 nM, SEQ ID NO:12), MgCl2 (13 mM), pyruvate kinase (3.5 units), lactate dehydrogenase (5.5 units), phosphoenolpyruvate (1 mM), and NADH (0.28 mM), in 60 mM Tris buffer, containing 0.13% octyl-glucoside and 3.5% DMSO concentration at pH 7.5. The test compounds were incubated with the reaction mixture at 30° C. for 1 h. The reaction was initiated by adding ATP (0.2 mM, final concentration). The absorption at 340 nm was continuously monitored for 3 h at 30° C. on a Polarstar Optima plate reader (BMG). The reaction rate was calculated using the 0.5 h to 1.5 h time frame. Percent inhibition was obtained by comparison of reaction rate with that of a control (i.e. with no test compound). IC50 values were calculated from a series of percent inhibition values determined at a range of inhibitor concentrations using software routines as implemented in the GraphPad Prism software package.

[3] = molecular target: T3, BaF3 cells transfected with T315I p210 BCR-Abl (Homo sapiens, UniProt P00519, T315I, cells depend on it); assay: Ba/F3 p210 T315I whole cell proliferation assay (Cell Titer Blue, 72 hours); format: cell-based; conditions: 72 hours incubation; read-out: Ba/F3 p210 T315I whole cell proliferation assay, antiproliferation IC50
T3 construct: fused on or other part: P11274 (Breakpoint cluster region protein)
Experimental: (§1) BaF3 cells (parental or transfected with the following: wild type p210 BCR-Abl and T315I p210 BCR-Abl was obtained from Professor Richard Van Etten (New England Medical Center, Boston, Mass.). Briefly, cells were grown in RPMI 1640 supplemented with 10% characterized fetal bovine serum (HyClone, Logan, Utah) at 37 degrees Celsius, 5% CO2, 95% humidity. Cells were allowed to expand until reaching 80% saturation at which point they were subcultured or harvested for assay use.
(§2) A serial dilution of test compound was dispensed into a 96 well black clear bottom plate (Corning, Corning, N.Y.). For each cell line, three thousand cells were added per well in complete growth medium. Plates were incubated for 72 hours at 37 degrees Celsius, 5% CO2, 95% humidity. At the end of the incubation period Cell Titer Blue (Promega, Madison, Wis.) was added to each well and an additional 4.5 hour incubation at 37 degrees Celsius, 5% CO2, 95% humidity was performed. Plates were then read on a BMG Fluostar Optima (BMG, Durham, N.C.) using an excitation of 544 nm and an emission of 612 nm. Data was analyzed using Prism software (Graphpad, San Diego, Calif.) to calculate IC50's.

[4] = molecular target: T4, BaF3 cells transfected with wild type p210 BCR-Abl (Homo sapiens, UniProt P00519); assay: Ba/F3 p210 whole cell proliferation assay (Cell Titer Blue, 72 hours); format: cell-based; conditions: 72 hours incubation; read-out: Ba/F3 p210 whole cell proliferation assay, antiproliferation IC50
T4 construct: fused on or other part: P11274 (Breakpoint cluster region protein)
Experimental: as §1, §2

[5] = molecular target: T5, T315I Abl kinase (SEQ ID NO:2) (Homo sapiens, UniProt P00519, T315I); assay: T315I Abl kinase assay (pyruvate kinase/lactate dehydrogenase coupled); conditions: 1 h preincubation at 30° C., ATP 500 μM; read-out: Abl T315l Enzyme Assay, biochemical IC50
T5 construct: purchased deCode Genetics
T5 sequence (P00519 with tags, fused parts or gaps T315I): T1 sequence (P00519 with tags, fused parts or gaps) with T94I
Experimental: Abl Kinase (SEQ ID NO:2) Assay
Activity of T315I Abl kinase (SEQ ID NO:2) was determined by following the production of ADP from the kinase reaction through coupling with the pyruvate kinase/lactate dehydrogenase system (e.g., Schindler, et al. Science (2000) 289, 1938-1942). In this assay, the oxidation of NADH (thus the decrease at A340nm) was continuously monitored spectrophometrically. The reaction mixture (100 μl) contained Abl kinase (4.4 nM. […] Abl from deCode Genetics), peptide substrate (EAIYAAPFAKKK, 0.2 mM), MgCl2 (10 mM), pyruvate kinase (4 units), lactate dehydrogenase (0.7 units), phosphoenol pyruvate (1 mM), and NADH (0.28 mM) in 90 mM Tris buffer containing 0.2% octyl-glucoside and 1% DMSO, pH 7.5. Test compounds were incubated with T315I Abl (SEQ ID NO:2) and other reaction reagents at 30° C. for 1 h before ATP (500 μM) was added to start the reaction. The absorption at 340 nm was monitored continuously for 2 hours at 30° C. on Polarstar Optima plate reader (BMG). The reaction rate was calculated using the 1.0 to 2.0 h time frame. Percent inhibition was obtained by comparison of reaction rate with that of a control (i.e. with no test compound). IC50 values were calculated from a series of percent inhibition values determined at a range of inhibitor concentrations using software routines as implemented in the GraphPad Prism software package.

| IC50 (Abl kinase (SEQ ID NO:1)) [µM] | IC50 [1] [µM] | IC50 [2] [µM] | GI50 [3] [µM] | GI50 [4] [µM] | IC50 [5] [µM] | SMILES |
| --- | --- | --- | --- | --- | --- | --- |
| < 0.1 | < 1 | < 1 | < 0.1 | < 0.1 | – | CCc1cc(NC(=O)Nc2ccc(Oc3ccnc(-c4cnn(CC)c4)c3)cc2F)n(-c2cccc(C#N)c2)n1 [Example 18, 1-(1-(3-cyanophenyl)-3-ethyl-1H-pyrazol-5-yl)-3-(4-(2-(1-ethyl-1H-pyrazol-4-yl)pyridin-4-yloxy)-2-fluorophenyl)urea] |
| < 0.1 | – | < 10 | < 1 | < 0.1 | – | CC(C)n1ncc(NC(=O)Nc2ccc(Oc3ccnc(-c4cnn(C)c4)c3)cc2F)c1-c1ccccc1 [Example 20, 1-(2-fluoro-4-(2-(1-methyl-1H-pyrazol-4-yl)pyridin-4-yloxy)phenyl)-3-(1-isopropyl-5-phenyl-1H-pyrazol-4-yl)urea] |
| < 0.1 | < 1 | < 1 | < 0.1 | < 0.1 | – | CCCn1cc(-c2cc(Oc3ccc(NC(=O)Nc4cc(CC)nn4-c4cccc(C#N)c4)c(F)c3)ccn2)cn1 [Example 15, 1-(1-(3-cyanophenyl)-S-ethyl-1H-pyrazol-5-yl)-3-(2-fluoro-4-(2-(1-propyl-1H-pyrazol-4-yl)pyridin-4-yloxy)phenyl)urea] |
| < 0.1 | – | < 10 | – | – | – | CCn1cc(NC(=O)Nc2ccc(Oc3ccnc(-c4cnn(C)c4)c3)cc2F)c(-c2ccccc2)n1 [Example 23, 1-(1-ethyl-3-phenyl-1H-pyrazol-4-yl)-3-(2-fluoro-4-(2-(1-methyl-1H-pyrazol-4-yl)pyridin-4-yloxy)phenyl)urea hydrochloride] |
| < 1 | – | < 10 | – | – | – | CCn1ncc(NC(=O)Nc2ccc(Oc3ccnc(-c4cnn(C)c4)c3)cc2F)c1-c1ccccc1 [Example 22, 1-(1-ethyl-5-phenyl-1H-pyrazol-4-yl)-3-(2-fluoro-4-(2-(1-methyl-1H-pyrazol-4-yl)pyridin-4-yloxy)phenyl)urea hydrochloride] |
| < 0.1 | < 0.1 | – | < 0.1 | < 0.1 | < 0.1 | Cn1cc(-c2cc(Oc3ccc(NC(=O)Nc4cc(C(C)(C)C)nn4-c4ccccc4)c(F)c3)ccn2)cn1 [Example 1, 1-(3-t-butyl-1-phenyl-1H-pyrazol-5-yl)-3-(2-fluoro-4-(2-(1-methyl-1H-pyrazol-4-yl)pyridin-4-yloxy)phenyl)urea] |
